Each compound was assayed on TAA-induced model hepatic fibrosis in mice (assay: Treatment of TAA-induced model hepatic fibrosis in mice by oral (intragastric) administration; hydroxyproline test and alanine aminotransferase test). Settings: hepatic tissue; 20mg/kg intragastrically in corn oil, twice a week, 4 weeks; TAA 200mg/kg; mean value ± standard deviation; TAA model group 356±43.
Type: in vivo, ICR mice
Excerpt: (§1) The following example is to be regarded as a case to illustrate specific details of this invention. It should not be viewed as to limit the application scope of this invention. Application of Indole-3-carbinol, Diindolylmethane and Derivatives thereof Disclosed in This Invention in the Treatment of Modeled Hepatic Fibrosis: • 1. Injecting the phosphate buffer solution of thioacetamide (TTA) into the abdominal cavity of ICR mice so that TTA models of hepatic fibrosis can be established. • 2. Dissolving indole-3-carbinol, diindolylmethane and derivative thereof in corn oil and treating hepatic fibrosis through intragastric administration at the same time of the establishment of TTA models of hepatic fibrosis. • 3. Administering TAA, indole-3-carbinol, diindolylmethane and derivatives thereof twice a week for four weeks in succession; killing the mice and taking out the liver for hydroxyproline test and alanine aminotransferase (ALT) test. Application of Water Injection of Indole-3-carbinol, Diindolylmethane and Derivatives thereof Disclosed in This Invention in the Treatment of Modeled Hepatic Fibrosis: • 1. Injecting the phosphate buffer solution of thioacetamide (TTA) into the abdominal cavity of ICR mice so that TTA models of hepatic fibrosis can be established. • 2. Dissolving indole-3-carbinol, diindolylmethane and derivative thereof in water and treating hepatic fibrosis through intraperitoneal administration at the same time of the establishment of TTA models of hepatic fibrosis. • 3. Administering TAA, indole-3-carbinol, diindolylmethane and derivatives thereof twice a week for four weeks in succession; killing the mice and taking out the liver for hydroxyproline test and alanine aminotransferase (ALT) test. Dissolving I3C, DIM and methoxyl-DIM in corn oil so that 2.0mg/ml stock solution can be obtained for later use; establishing TAA models of hepatic fibrosis in mice with the method commonly adopted in the related literature, namely, picking 40 mice weighing 16-18g and randomly dividing them into four groups: TAA model group, I3C treatment group, DIM treatment group and 5-methoxyl-DIM treatment group; injecting TAA phosphate buffer solution (200mg/kg) into the abdominal cavity of the mice, twice a week; starting the treatment at the same time of the model establishment: administering the correlated drugs intragastrically at the rate of 20mg/kg to the mice in I3C treatment group, DIM treatment group and 5-methoxyl-DIM treatment group, twice a week; in contrast, the mice in the TAA model group are given only corn oil at the same dosage and frequency. Killing all mice of the four groups 4 weeks later and taking out the pathologically changed hepatic tissue for hydroxyproline test and alanine aminotransferase test. • (1) Hydroxyproline test Preparing the tissue homogenate of the pathologically changed liver and extracting the supernatant thereof; testing the concentration of hydroxyproline by means of alkaline hydrolysis. • (2) Results of alanine aminotransferase test Testing the serum of mice so that the concentration of alanine aminotransferase can be determined. When hepatic fibrosis is in process, what accumulate in liver are mainly collagen fibers. Since hydroxyproline is specific to collagen fibers, its concentration to some extent reflects the degree of hepatic fibrosis. As is shown in table 1, the oral administration of I3C, DIM and derivatives thereof can effectively relieve hepatic fibrosis as the concentration of hydroxyproline in the treatment groups is significant lower than that of the TAA model group. […]
For `c1ccc2c(Cc3c[nH]c4ccccc34)c[nH]c2c1` [DIM, 3,3'-Diindolylmethane], the hydroxyproline was 176±21 µg/g liver. `OCc1c[nH]c2ccccc12` [I3 C, indole-3-carbinol] showed a hydroxyproline of 237±11 µg/g liver. `COc1ccc2[nH]cc(Cc3c[nH]c4ccc(OC)cc34)c2c1` [5-methoxyl-DIM] was tested, and the hydroxyproline was 194±17 µg/g liver.

Same assay, conditions: hepatic tissue; 20mg/kg intragastrically in corn oil, twice a week, 4 weeks; TAA 200mg/kg; mean value ± standard deviation; TAA model group 372±24
Compound `c1ccc2c(Cc3c[nH]c4ccccc34)c[nH]c2c1` [DIM, 3,3'-Diindolylmethane] has an alanine aminotransferase of 204±37 U/mgprot. For `OCc1c[nH]c2ccccc12` [I3 C, indole-3-carbinol], the alanine aminotransferase was 245±32 U/mgprot. Compound `COc1ccc2[nH]cc(Cc3c[nH]c4ccc(OC)cc34)c2c1` [5-methoxyl-DIM] has an alanine aminotransferase of 236±12 U/mgprot.

Each compound was assayed on TAA-induced model hepatic fibrosis in mice (assay: Treatment of TAA-induced model hepatic fibrosis in mice by intraperitoneal administration of water injection; hydroxyproline test and alanine aminotransferase test). Settings: 20mg/kg intraperitoneally, water injection with cyclodextrin in physiological saline, twice a week, 4 weeks; mean value ± standard deviation; TAA model group 392±31.
Type: in vivo, ICR mice
Excerpt: as §1, with “determined.” for “determined. When hepatic fibrosis is in process, what accumulate in liver are mainly collagen fibers. Since hydroxyproline is specific to collagen fibers, its concentration to some extent reflects the degree of hepatic fibrosis. As is shown in table 1, the oral administration of I3C, DIM and derivatives thereof can effectively relieve hepatic fibrosis as the concentration of hydroxyproline in the treatment groups is significant lower than that of the TAA model group.”
Work on `c1ccc2c(Cc3c[nH]c4ccccc34)c[nH]c2c1` [DIM, 3,3'-Diindolylmethane] yielded an alanine aminotransferase of 187±29 U/mgprot. With `OCc1c[nH]c2ccccc12` [I3 C, indole-3-carbinol] the alanine aminotransferase was 239±21 U/mgprot. Compound `COc1ccc2[nH]cc(Cc3c[nH]c4ccc(OC)cc34)c2c1` [5-methoxyl-DIM] has an alanine aminotransferase of 226±19 U/mgprot.

Same assay, conditions: hepatic tissue; 20mg/kg intraperitoneally, water injection with cyclodextrin in physiological saline, twice a week, 4 weeks; mean value ± standard deviation; TAA model group 363±32
For `c1ccc2c(Cc3c[nH]c4ccccc34)c[nH]c2c1` [DIM, 3,3'-Diindolylmethane], the hydroxyproline was 195±24 µg/g liver. For `OCc1c[nH]c2ccccc12` [I3 C, indole-3-carbinol], the hydroxyproline was 253±21 µg/g liver. Work on `COc1ccc2[nH]cc(Cc3c[nH]c4ccc(OC)cc34)c2c1` [5-methoxyl-DIM] yielded a hydroxyproline of 203±14 µg/g liver.
